Data on one compound can be found in ChEMBL document CHEMBL1138942, “Inactivation of GABA transaminase by 4-acryloylphenol” (Bioorg Med Chem Lett, 2006).

The term Ki denotes a measure of affinity in units of concentration, obtained from inhibition or displacement. Low readings indicate higher affinity, high ones lower affinity.

Assay [1] in a line: (§1) Inhibition of GABA-T. Also noted: species or system Rattus norvegicus.
The species entered for a further assay is Rattus norvegicus. Described as §1.

In the case of `C=CC(=O)c1ccc(O)cc1`, the Ki in assay [1] was determined as 470 µM. Moreover, the Activity entry in the assay listed under Rattus norvegicus is “Time-dependent effect”.
